In patent US12359230B2, “Microbial oils with high levels of omega-3 fatty acids” (MARA Renewables Corporation, priority 2020, dated 2025):

Tests used:
Type in all cases: cell-based
[1] = test system: Aurantiochytrium sp. (G3); experiment: Cerulenin effect on product concentration and yield per carbon consumed
Source text: To assess the impact of the herein described methods for PUFA enhancement strategy, the yields of product (i.e. TFA, DHA or DPA) relative to the amount of carbon assimilated by the G3 cells was investigated. In FIG. 5, the total amount of product synthesized (categorized as total fatty acids (TFA), saturated fatty acids (SFA) or DHA) is depicted. In the presence of fatty acid synthesis inhibitors, dosed at certain frequency and concentration, both TFA and DHA concentration increased while SFA concentration decreased. For example, under the condition where cerulenin was dosed 1 μM each time for 6 times at 12 hour intervals, TFA and DHA increased by 15% and 71%, respectively, when compared to the results of the control experiment (FIG. 5).

[2] = test system: Aurantiochytrium sp. (G3); experiment: Cerulenin dose timing: fatty acid profile of Aurantiochytrium sp. (G3)
Method: To determine the ideal time for addition of the fatty acid synthase inhibitor cerulenin without excessive harm such as preventing cell growth, experiments were conducted by adding a set amount of cerulenin at various amounts of time after inoculation. In all experiments, the control experiment was performed with the same medium and growth conditions without the addition of FAS inhibitors.

[3] = test system: Aurantiochytrium sp. (G3); experiment: Cerulenin concentration: fatty acid profile of Aurantiochytrium sp. (G3); conditions: 20° C.
Method: To determine the optimum concentration of cerulenin to provide the best results, a range of concentrations from 1 μM to 40 μM were tested. For consistency, all cerulenin additions were made at 24 hours after inoculation. […] (G3) in varying concentrations of cerulenin at 20° C.

[4] = test system: Aurantiochytrium sp. (G3); experiment: Cerulenin dosing regimen: fatty acid profile of Aurantiochytrium sp. (G3); conditions: for DHA: DPA / Fatty Acid Content, TFA: 20° C.
Method: To investigate the effect of prolonged, repeated exposure to cerulenin, doses were spread equally across 3 or 6 times during the experiment. In each case, the total amount added was equivalent to the corresponding treatments that were added entirely at 24 hours. All additions began at 24 hours after inoculation. In FIGS. 3 and 4, a clear trend of increasing DHA and DPA was visible with both increasing cerulenin concentration and by dosing the cerulenin in multiple equivalent pulses.

[5] = cerulenin 1 μM each time for 6 times at 12 hour intervals
[6] = 25 μM cerulenin added 0 hr after inoculation, 20° C.
[7] = 25 μM cerulenin added 24 hr after inoculation, 20° C.
[8] = 25 μM cerulenin added 48 hr after inoculation, from 25° C. data
[9] = cerulenin added 24 hours after inoculation
[10] = 1 μM cerulenin added at 24 hours after inoculation
[11] = 2 μM cerulenin added at 24 hours after inoculation
[12] = 3 μM cerulenin added at 24 hours after inoculation
[13] = 6 μM cerulenin added at 24 hours after inoculation
[14] = 9 μM cerulenin added at 24 hours after inoculation
[15] = 25 μM cerulenin added at 24 hours after inoculation
[16] = 40 μM cerulenin added at 24 hours after inoculation
[17] = 3 μM cerulenin added entirely at 24 hours
[18] = 6 μM cerulenin added entirely at 24 hours
[19] = 9 μM cerulenin added entirely at 24 hours
[20] = 25 μM cerulenin added entirely at 24 hours
[21] = 3 × 1 μM cerulenin, interval 24 hours, starting at 24 hours after inoculation
[22] = 3 × 2 μM cerulenin, interval 24 hours, starting at 24 hours after inoculation
[23] = 3 × 3 μM cerulenin, interval 24 hours, starting at 24 hours after inoculation
[24] = 3 × 8.3 μM cerulenin, interval 24 hours, starting at 24 hours after inoculation
[25] = 6 × 0.5 μM cerulenin, interval 12 hours, starting at 24 hours after inoculation
[26] = 6 × 1 μM cerulenin, interval 12 hours, starting at 24 hours after inoculation
[27] = 6 × 2 μM cerulenin, interval 12 hours, starting at 24 hours after inoculation
[28] = 6 × 3 μM cerulenin, interval 12 hours, starting at 24 hours after inoculation
[29] = 6 × 4.17 μM cerulenin, interval 12 hours, starting at 24 hours after inoculation

C/C=C/C/C=C/CCC(=O)[C@H]1O[C@H]1C(N)=O [cerulenin]
increase in DHA yield (gram product/gram carbon consumed) vs control ([1]; 6×1 μM cerulenin): 53% | reduction in SFA yield (gram product/gram carbon consumed) vs control ([1]; 6×1 μM cerulenin): 64% | DHA concentration increased vs control [1, 5]: 71% | TFA concentration increased vs control [1, 5]: 15% | DHA: DPA [2, 6]: 6.13 | Fatty Acid Content, TFA [2, 6]: 579.14 mg/g of dry biomass | DHA: DPA [2, 7]: 5.14 | Fatty Acid Content, TFA [2, 7]: 560.24 mg/g of dry biomass | DHA: DPA [2, 8]: 4.58 | Fatty Acid Content, TFA [2, 8]: 641.86 mg/g of dry biomass | C14:0 reduced (% of TFA, vs control) [2, 9]: 21.1% | C16:0 reduced (% of TFA, vs control) [2, 9]: 27.9% | cell growth ([2]; cerulenin added at any addition time after inoculation): not inhibited | DHA: DPA [3, 10]: 8.73 | Fatty Acid Content, TFA [3, 10]: 580.28 mg/g of dry biomass | DHA: DPA [3, 11]: 8.50 | Fatty Acid Content, TFA [3, 11]: 580.90 mg/g of dry biomass | DHA: DPA [3, 12]: 6.77 | Fatty Acid Content, TFA [3, 12]: 658.72 mg/g of dry biomass | DHA: DPA [3, 13]: 6.87 | Fatty Acid Content, TFA [3, 13]: 619.88 mg/g of dry biomass | DHA: DPA [3, 14]: 6.26 | Fatty Acid Content, TFA [3, 14]: 603.79 mg/g of dry biomass | DHA: DPA [3, 15]: 5.27 | Fatty Acid Content, TFA [3, 15]: 578.10 mg/g of dry biomass | DHA: DPA [3, 16]: 4.54 | Fatty Acid Content, TFA [3, 16]: 540.11 mg/g of dry biomass | DHA: DPA [4, 17]: 6.77 | Fatty Acid Content, TFA [4, 17]: 658.72 mg/g of dry biomass | DHA: DPA [4, 18]: 6.87 | Fatty Acid Content, TFA [4, 18]: 619.88 mg/g of dry biomass | DHA: DPA [4, 19]: 6.26 | Fatty Acid Content, TFA [4, 19]: 603.79 mg/g of dry biomass | DHA: DPA [4, 20]: 5.40 | Fatty Acid Content, TFA [4, 20]: 595.96 mg/g of dry biomass | DHA: DPA [4, 21]: 6.67 | Fatty Acid Content, TFA [4, 21]: 636.22 mg/g of dry biomass | DHA: DPA [4, 22]: 6.10 | Fatty Acid Content, TFA [4, 22]: 614.40 mg/g of dry biomass | DHA: DPA [4, 23]: 6.28 | Fatty Acid Content, TFA [4, 23]: 597.67 mg/g of dry biomass | DHA: DPA [4, 24]: 4.75 | Fatty Acid Content, TFA [4, 24]: 617.52 mg/g of dry biomass | DHA increase ([4]; 6 equivalent doses of cerulenin, 12 μM in total): 51.6% | DHA: DPA [4, 25]: 5.66 | Fatty Acid Content, TFA [4, 25]: 616.79 mg/g of dry biomass | DHA: DPA [4, 26]: 5.12 | Fatty Acid Content, TFA [4, 26]: 620.75 mg/g of dry biomass | DHA: DPA [4, 27]: 4.69 | Fatty Acid Content, TFA [4, 27]: 585.23 mg/g of dry biomass | DHA: DPA [4, 28]: 4.19 | Fatty Acid Content, TFA [4, 28]: 540.81 mg/g of dry biomass | DHA: DPA [4, 29]: 3.91 | Fatty Acid Content, TFA [4, 29]: 538.56 mg/g of dry biomass | DHA % ([4]; flask experiment, multiple and intermittent dosing of cerulenin (12 μM total, 20° C., FIG. 7)): 68.7% | maximal decrease in C14:0 ([4]; repeated cerulenin dosing): 85.1% | maximal decrease in C16:0 ([4]; repeated cerulenin dosing): 83.9% | impact on total fatty acids ([4]; repeated dose addition of cerulenin): no negative impact
